# In US20200024573A1, “CHEMICAL DIFFERENTIATION OF PLURIPOTENT STEM CELLS INTO RETINAL EPITHELIAL CELLS” (International Stem Cell Corporation, priority 2014, published 2020):
# System: retinal epithelial progenitor cells
# Test: Derivation of retinal pigmented epithelium from hPSCs in 3D culture
# Assay type: cell-based, human
# Conditions: hPSC 3D cultures, N2/B27 medium containing Chir99021 (3 μM) for 15 days, after 12 days SB431542, IWR-1, DMH-1, Y-27632
# Method: hPSCs cells growing under feeder-free culture conditions were dissociated with Accutase and grown in suspension in Ultra-low 6 well plates, with N2/B27 medium (DMEM/F12 with GlutaMAX, 1× N2/B27 Supplement) plus SB431542 (10 μM), IWR-1 (3 μM), DMH-1 (2 μM), and Y-27632 (10 μM) for 12 days (FIGS. 1A-1C) to generate retinal epithelial progenitor cells. After 12 days, to differentiate the retinal epithelial progenitor cells into retinal pigmented epithelium into RPEs, hPSC 3D cultures were switch into N2/B27 medium containing Chir99021 (3 μM) for 15 days (FIGS. 1A-1C and 2). […] Derivation of RPEs was confirmed by immunohistochemistry for RPE specific protein expression (MITF, ZO-1, Best-1 and Melanosome) and by RT-PCR gene analysis for RPE specific gene markers ([…], BEST1 OTX2, RLBP1, RPE65 and SERINF1) (FIGS. 3 and 4). FACS analysis was performed to determine the percentage of cells positive for RPE specific proteins MITF, Mel and BEST (FIGS. 5A-5C).
smiles,measurement,value
Cc1c[nH]c(-c2cnc(NCCNc3ccc(C#N)cn3)nc2-c2ccc(Cl)cc2Cl)n1 [Chir99021],maturation/pigmentation of retinal epithelial progenitor cells,promotes the maturation/pigmentation of retinal epithelial progenitor cells
